According to patent publication US11718628B2, “SREBP inhibitors comprising a 6-membered central ring” (Capulus Therapeutics, LLC, priority 2018, dated 2023):
Like-named read-outs stand apart in the source and are kept apart here. One block for each compound: values may come before it.

Key:
SREBP = experiment: Reporter screening assay (SRE-luciferase reporter construct); type: cell-based; details: Homo sapiens; SREBPv1 reporter cell line HepG2, 24 hours, 0.01 uM to 10 uM; read-out: Reporter Screening IC50 (nM) Activity Range
Method: This assay was used to evaluate the effect on transcriptional activity SREBP of the compounds synthesized according to Examples 1-16, 20, and 22, using an SRE-luciferase reporter construct. On day 1, 10,000 cells were seeded in a 96 well (white) plate as per the plate map in Growth media without antibiotics. Cells were incubated at 37° C. for 8 hours. After 8 hours, cells were washed with DPBS for complete removal of FBS. DPBS was completely removed and Growth media was replaced with phenol free treatment medium (90 μl) with different FBS concentrations. The cells were then incubated at 37° C. for 24 hours with varying doses (0.01 uM to 10 uM) of compounds. Then a Luciferase assay was performed.
Reagents for performing Luciferase assay were stored at −20° C. To a tube of lyophilized assay substrate was added 1 mL Substrate Solvent and mixed well. The Substrate tube after reconstitution was covered with aluminum foil so as to keep it protected from light. The assay buffer was thawed to room temperature. To 20 mL Assay Buffer was added 200 μL of reconstituted 100× Substrate and mixed well. The reconstituted substrate as well as the assay solution (buffer+substrate) was protected from light throughout the procedure by keeping it covered with aluminum foil.
Using a multi-channel pipette, 100 μL Assay Solution (buffer+substrate) was added directly to each sample well in Plate 1, which was incubated for 30 min (plate was covered with aluminum foil). After 30 min incubation, the plate was read for total luminescence. Each well was read for 2 seconds in a plate luminometer. (Microplate reader Envision Microplate reader from Perkin Elmer). Precaution was taken to incubate plate exactly for 30 min prior to reading on the plate reader.
Materials: SREBPv1 Reporter cell line: HepG2—#32251. Growth Medium: MEM (Corning 10-010), 10% FBS, 1% GlutaMax (Invitrogen Catalog #35050061), […] (Invitrogen Catalog #A1113803) and 1% Penicillin-Streptomycin (Pen-Strep). Treatment Media: Phenol-free MEM (Invitrogen Catalog #51200-038) and 1% GlutaMax (Invitrogen Catalog #35050061). Luciferase Assay: LightSwitch Luciferase Assay Kit (Catalog #32032). LDH assay: Pierce LDH Cytotoxicity Assay Kit (Catalog #SD249616).

[1] = In vivo pharmacokinetic properties in rats (IV and PO); parameters: species or system male Sprague Dawley rats
Method: (§1) The in vivo pharmacokinetic properties of compounds by both intravenous and oral administration were evaluated in male Sprague Dawley rats or C57BL/6J mice.
(§2) Animals were housed in cages with clean bedding. Certified rodent diet was provided. Water was available ad libitum. Environmental controls for the animal room were set to maintain a temperature of 22° C. to 25° C., humidity of 40-70% RH, and a 12-hour light/12-hour dark cycle. Normal healthy animals certified by the attending veterinarian were selected and acclimatized for minimum three days prior to initiation of study.
Surgical Procedure for Jugular Vein Cannulation of Rats: Rats were anaesthetized with a single dose of ketamine 50 mg/kg i.p.+xylazine 6 mg/kg i.p. The right jugular vein was exposed, a loose ligature was placed caudally, and the cranial end of vein was ligated. A small incision was made between the ligatures into which the catheter (polyethylene 50 tubing of internal diameter 0.58 mm and outer diameter 0.96 mm) was inserted. The catheter was secured in place by tying the loose ligature around the catheterized vessel. A small incision was made in the scapular region to serve as the exit site of the catheter. The catheter was subcutaneously tunneled and exteriorized through scapular incision. A stay suture was placed in the scapular area. Patency was tested, and catheter was filled with a locking solution (heparinized saline) and sealed with a stainless steel plug. The incision was then sutured with sterile suturing material. Anti-septic solution was applied to the sutured site and animal was placed back in the home cage.
(§3) To evaluate pharmacokinetic properties of intravenous delivery, male Sprague Dawley rats were administered 2.00 mg compound/kg animal weight through the tail vein. The concentration of the compound in the plasma of the animals was evaluated at 0.083, 0.25, 0.5, 1, 2, 4, 8, 12 and 24 hr by taking blood samples from the cannulated jugular vein. For the C5Bl/6J mice, blood samples were collected through a capillary, guided in retro-orbital plexus.
To evaluate pharmacokinetic properties of oral delivery, rats (male Sprague Dawley rats) or mice (C5Bl/6J) were administered 10 mg compound/kg animal weight by mouth. The concentration of compound in the plasma of the animals was evaluated at 0.25, 0.5, 1, 2, 4, 6, 8, 12 and 24 hr by taking blood samples from the cannulated jugular vein (rats) or through a capillary, guided in retro-orbital plexus (mice).

[2] = Log D by octanol/aqueous buffer partitioning; type: physicochemical; details: 1-octanol/aqueous buffer; pH 7.4, 1-octanol/buffer; read-out: LogD
Method: The Log D of selected compounds was evaluated by octanol/aqueous buffer partitioning. 500 μL of organic phase (1-octanol) was added to each well of a 2 mL deep well plate, followed by 500 μL of buffer and 15 μL of test compound in DMSO (0.15 mM). The plate was vortexed for 10 seconds and incubated at room temperature for 1 hr on a plate shaker at 200 rpm. After incubation, the samples were allowed to equilibrate for 20 min and then centrifuged at 4000 rpm for 30 min for complete phase separation. The distribution of test compound in buffer and octanol phase was analyzed by HPLC-UV. Log D=Log (Area of Octanol/Area of Buffer).

[3] = Plasma and liver compound levels in mice after oral administration; type: in vivo; details: 30 mpk
Method: (§4) The pharmacodynamic properties of selected compounds were evaluated in mice. The animals were housed in cages with clean bedding, and maintained and monitored for good health in accordance with Test Facility SOPs and at the discretion of the laboratory animal veterinarian. Certified rodent diet was provided. Food and water was available ad libitum. Environmental controls for the animal room were set to maintain a temperature of 22° C. to 25° C., humidity of 40-70% RH, and a 12-hour light/[…]. Normal healthy animals certified by the attending veterinarian were selected and acclimatized for minimum three days prior to initiation of study. Animals were identified with body markings.
(§5) Aliquots of the compounds being evaluated were weighed and triturated with 0.5% methylcellulose (with the addition of 5% N-methyl pyrrolidone when required to remove clumping, as for Z-806) to an appropriate dose concentration. Vials were labeled with the information about study number, test item, concentration and date of preparation. A description of appearance of formulation was recorded (e.g., color, turbidity, etc.). The composition of formulation vehicle was recorded. An aliquot of each dose solution was taken before the dosing began and after dosing was finished, and stored at approximately −20° C. or below for subsequent analysis. The animals were dosed orally through oral gavage needle, and time of dosing was recorded.
After dosing, the mice were anesthetized using gaseous anesthesia. Blood samples were collected through a capillary, guided in retro-orbital plexus, at 6 h or at 24 h. Approximately 100 uL of blood was collected from each mouse, in pre-labeled tubes. The collected blood was stored on ice prior to centrifugation. Blood samples were then centrifuged within 1 hour of collection to separate plasma. Centrifugation was conducted at 2500×g for 15 minutes at 4° C. The plasma was separated and transferred to pre-labeled micro-centrifuge tubes and promptly frozen at −80±10° C. until bioanalysis.
(§6) Liver Collection at 6 h or 24 h: Immediately after blood withdrawal for pharmacokinetic evaluation (at 6 or at 24 h), liver tissue was collected without perfusion. Animals were euthanized using carbon dioxide gas in a CO2 chamber. The whole blood was drained by cutting the both side jugular vein and abdominal aorta. The liver was separated out. All the liver samples were divided in two parts. The first part (200 mg approx.) was snap frozen using liquid nitrogen as soon as possible. These samples were immediately transferred to −80° C. for storage. The remaining part was weighed and used for bioanalysis.

[4] = test system: liver gene expression (ACACA, ACLY, FASN, LSS, PNPLA3); experiment: Liver gene expression in mice after oral administration; type: in vivo; details: 30 mpk, vs vehicle
Method: as §4, §5, §6
RNA Processing and Gene Expression Analysis: Liver Tissue RNA was harvested with the RNEasy kit and 20-100 ng used to synthesize cDNA with random primers following the manufacturer's protocol. Quantitative PCR was performed on 1 pg to 100 ng cDNA for the following genes: ACACA, ACLY, FASN, LSS, PNPLA3. Gene expression levels were determined using ΔΔCT method comparing treated to vehicle treated samples as a baseline, and fold change calculated. The average value for all 5 genes above was averaged and termed to Total Fold Change The results from this evaluation are presented in Table 8.

[5] = In vivo pharmacokinetic properties in mice (IV and PO); parameters: species or system C57BL/6J mice; details: mouse, in vivo
Method: as §1, §2, §3
[…] The concentration of compound in the plasma of the animals was evaluated at 0.25, 0.5, 1, 2, 4, 6, 8, 12 and 24 hr by taking blood samples from the cannulated jugular vein (rats) or through a capillary, guided in retro-orbital plexus (mice).

Compound: COC1CCCN(C(=O)c2ccc(-c3cncc(-c4ccnc(C(C)(C)C)c4)c3)c(Cl)c2)C1 (stereo not shown) [Compound 15, (4-(2′-(tert-butyl)-[3,4′-bipyridin]-5-yl)-3-chlorophenyl)(3-methoxypiperidin-1-yl)methanone]
- IC50 (SREBP): ≤ 100 nM

Compound: CC(C)OC(=O)Nc1ccc(-c2cncc(-c3ccnc(C(C)(C)C)c3)c2)c(Cl)c1 [Compound 16, isopropyl (4-(2′-(tert-butyl)-[3,4′-bipyridin]-5-yl)-3-chlorophenyl)carbamate]
- IC50 (SREBP): ≤ 500 nM

Compound: CC(C)OC(=O)Nc1ccc(-c2cncc(-c3ccnc(C4OCCO4)c3)c2)c(Cl)c1 [Compound 20, Isopropyl (4-(2′-(1,3-dioxolan-2-yl)-[3,4′-bipyridin]-5-yl)-3-chlorophenyl)carbamate]
- IC50 (SREBP): ≤ 500 nM

Compound: CC(C)(C)c1cc(-c2cncc(-c3ccc(NS(C)(=O)=O)cc3Cl)c2)ccn1 [Compound Z-803, N-(4-(2′-(tert-butyl)-[3,4′-bipyridin]-5-yl)-3-chlorophenyl)methanesulfonamide]
- AUC(0-t) ([1]; male, Sprague Dawley, rat, plasma, 10 mg/kg, heading: Oral Administration AUC0-last, PO, 10 mg/kg): 2580 ng·h/mL
- AUC(0-t) ([1]; male, Sprague Dawley, rat, plasma, IV, 2 mg/kg, read-out: Intravenous Delivery (IV) AUC0-last): 6160 ng·h/mL
- clearance ([1]; male, Sprague Dawley, rat, plasma, IV, 2 mg/kg, read-out: Intravenous Delivery (IV) CL): 5.2 mL/min/kg
- half-life ([1]; male, Sprague Dawley, rat, plasma, IV, 2 mg/kg, read-out: Intravenous Delivery (IV) T1/2 (converted)): 4.86 h
- Vd ([1]; male, Sprague Dawley, rat, plasma, IV, 2 mg/kg, read-out: Intravenous Delivery (IV) Vd): 2.18 L/kg
- bioavailability ([1]; male, Sprague Dawley, rat, plasma, PO 10 mg/kg vs IV 2 mg/kg, read-out: % F (Bioavailability of oral delivery)): 8.3%
- half-life ([1]; male, Sprague Dawley, rat, plasma, PO, 10 mg/kg, read-out: Oral Administration (PO) T1/2 (converted)): 4.37 h
- Tmax ([1]; male, Sprague Dawley, rat, plasma, PO, 10 mg/kg, read-out: Oral Administration (PO) Tmax): 3.33 h
- LogD [2]: 3.84

The next lines start with results.

- IC50 (SREBP): ≤ 1000 nM
Compound: O=C(c1ccc(-c2cncc(-c3ccnc(C4OCCO4)c3)c2)c(Cl)c1)N1CCC(O)CC1 [Compound 12, (4-(2′-(1,3-dioxolan-2-yl)-[3,4′-bipyridin]-5-yl)-3-chlorophenyl)(4-hydroxypiperidin-1-yl)methanone]

- IC50 (SREBP): ≤ 500 nM
Compound: CC(C)(C)OC(=O)NC1CCCN(C(=O)c2ccc(-c3cncc(-c4ccnc(C(C)(C)C)c4)c3)c(Cl)c2)C1 (stereo not shown) [Compound 13, tert-butyl (1-(4-(2′-(tert-butyl)-[3,4′-bipyridin]-5-yl)-3-chlorobenzoyl)piperidin-3-yl)carbamate]

- IC50 (SREBP): ≤ 100 nM
Compound: CC(C)(C)c1cc(-c2cncc(-c3ccc(C(=O)N4CCCC(O)C4)cc3Cl)c2)ccn1 (stereo not shown) [Compound 14, (4-(2′-(tert-butyl)-[3,4′-bipyridin]-5-yl)-3-chlorophenyl)(3-hydroxypiperidin-1-yl)methanone]

- IC50 (SREBP): ≤ 500 nM
Compound: CC1(O)CCCN(C(=O)c2ccc(-c3cncc(-c4ccnc(C(C)(C)C)c4)c3)c(Cl)c2)C1 (stereo not shown) [Compound 22, (4-(2′-(tert-butyl)-[3,4′-bipyridin]-5-yl)-3-chlorophenyl)(3-hydroxy-3-methylpiperidin-1-yl)methanone]

- Intravenous Delivery (IV) CL ([1]; IV, 2 mg/kg): 10.7 mL/min/kg
- Intravenous Delivery (IV) T1/2 ([1]; IV, 2 mg/kg): 3.19 h
- Intravenous Delivery (IV) Vd ([1]; IV, 2 mg/kg): 2.97 L/kg
- % F (Bioavailability of oral delivery) ([1]; PO 10 mg/kg vs IV 2 mg/kg): 35%
- Oral Administration (PO) AUC0-last ([1]; PO, 10 mg/kg): 5387
- Oral Administration (PO) T1/2 ([1]; PO, 10 mg/kg): 3.05 h
- Oral Administration (PO) Tmax ([1]; PO, 10 mg/kg): 1 h
- Liver ng/mg (6 h) ([3]; 6 h): >1000 ng/mg
- Plasma ng/mL (6 h) ([3]; 6 h): >1000 ng/mL
- Liver ng/mg 24 h ([3]; 24 h): >1000 ng/mg
- Plasma ng/mL (24 h) ([3]; 24 h): 100 to 1000 ng/mL
- % F (Bioavailability of oral delivery) [5]: 82%
- Intravenous Delivery (IV) AUC0-last ([5]; iv, 2 mg/kg): 3930 ng·h/mL
- Intravenous Delivery (IV) CL ([5]; iv, 2 mg/kg): 8.45 mL/min/kg
- Intravenous Delivery (IV) T1/2 ([5]; iv, 2 mg/kg): 3.24 h
- Intravenous Delivery (IV) Vd ([5]; iv, 2 mg/kg): 2.37 L/kg
- Oral Administration (PO) AUC0-last ([5]; po, 10 mg/kg): 15000 ng·h/mL
- Oral Administration (PO) T1/2 ([5]; po, 10 mg/kg): 6.2 h
- Oral Administration (PO) Tmax ([5]; po, 10 mg/kg): 0.25 h
Compound: CC(C)(C)c1cc(-c2cncc(-c3c(Cl)cc(C(=O)N4CCC(O)CC4)cc3Cl)c2)ccn1 [Z-826]
- Total Gene FC Time (6 h) ([4]; 6 h): + (>0.751 = +)
- Total Gene FC Time (24 h) ([4]; 24 h): ++ (0.51-0.7509 = ++)
